Measurements: ChEMBL document CHEMBL1201862, “PubChem BioAssay data set” (2004)
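Test compounds were applied to cells in 96-well plates for 48 hours at 5 doses. GI50 is the concentration that inhibits growth by half.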 Calls of active or inactive are those of the source. No stated cut-off is given here; in the data, active = GI50 up to about 1.1 µM and inactive = higher.

Assays:
Assay in all cases: inhibition of tumour cell growth, NCI panel, 48 h
[1] = tested on: LXFL 529
[2] = tested on: SNB-78
[3] = tested on: RXF 631
[4] = tested on: M19-MEL
[5] = tested on: HOP-18
[6] = tested on: KM-20L2
[7] = tested on: DMS-114
[8] = tested on: T47D
[9] = tested on: XF498

Structure (SMILES) | GI50 [2] | GI50 [4] | GI50 [5] | GI50 [6] | GI50 [7] | GI50 [8] | further results
Cc1ccc(NC(=O)/C(=N\Nc2ccc([N+](=O)[O-])cc2[N+](=O)[O-])C2C(=O)NC(=O)NC2=O)cc1 | > 100 µM (inactive) | > 100 µM (inactive) | > 100 µM (inactive) | 15.4 µM (inactive) | 49.2 µM (inactive) |  | GI50 [1]: 13.3 µM (inactive); GI50 [3]: > 100 µM (inactive)
O=C(O)c1ccccc1-c1ccccc1C(=O)Nc1ccc2c(c1)Cc1cc(F)ccc1-2 |  |  |  |  |  | 22.1 µM (inactive) | 
CC(C)N(C(=O)C12C3C4C5C3C1(C#N)C5C42)C(C)C (configuration not stated) | > 100 µM (inactive) | > 100 µM (inactive) | > 100 µM (inactive) | > 100 µM (inactive) | > 100 µM (inactive) |  | GI50 [1]: > 100 µM (inactive); GI50 [9]: > 100 µM (inactive)
O=C1C=C(Br)c2c(-c3ccccc3)oc3cccc1c23 | 35.6 µM (inactive) | > 60.1 µM (inactive) | > 100 µM (inactive) | > 100 µM (inactive) | 24.8 µM (inactive) | 6.21 µM (inactive) | GI50 [1]: > 65.2 µM (inactive); GI50 [3]: 46.8 µM (inactive)
CC1/C(=N/O)CC(c2ccccc2)N(N=O)C1c1ccccc1 (configuration not stated) |  |  |  |  |  | > 100 µM (inactive) | 
CNn1c(C)n[nH]c1=O |  |  |  |  |  | > 100 µM (inactive) | 
CCOC(=O)C1S(=O)(=O)OCCOS1(=O)=O | > 100 µM (inactive) | > 100 µM (inactive) |  |  |  |  | GI50 [1]: > 100 µM (inactive); GI50 [9]: > 100 µM (inactive); GI50 [3]: > 100 µM (inactive)
Cc1ccc2c(O)cc(-c3ccccc3)nc2n1 |  |  |  |  |  | > 100 µM (inactive) | 
CC(C)N1CCN(c2ccncc2S(=O)(=O)N2CCCCC2)CC1 |  |  |  |  |  | > 100 µM (inactive) | 
S=C1/C(=N/c2ccccc2)N(c2ccccc2)/C(=N\c2ccccn2)N1c1ccccc1 |  |  |  |  |  | 15 µM (inactive) | 
CC1C(c2ccc(Cl)cc2)c2cc3c(cc2OC1N1CCOCC1)OCO3 (configuration not stated) |  |  |  |  |  | 32.4 µM (inactive) | 
COc1ccc2[nH]c3c(C)c4ccnc(NCCCN(C)CCCNc5ccc6ncn7c8ccccc8c(=O)c5c67)c4c(C)c3c2c1 |  |  |  |  |  | 0.979 µM (active) | 
N=C(c1ccc2ccccc2c1)c1ccccc1Cc1ccccc1 |  |  |  |  |  | 17.3 µM (inactive) | 
Cc1ccc(NC(=O)c2cc3cc(/N=N/c4ccc(Br)cc4)ccc3oc2=O)cc1 | > 100 µM (inactive) |  | < 0.01 µM (active) |  | 37 µM (inactive) |  | GI50 [9]: > 100 µM (inactive)
C=C1CC(C#N)(C#N)[C@@H]2CC3CCCC3[C@H]12.C=C1CC(C#N)(C#N)[C@H]2C3CCCC3C[C@@H]12 (some centres not stated) |  |  |  |  |  | 31.9 µM (inactive) | 
Nc1ccn(C2OC(COC(=O)C34CC5CC(CC(C5)C3)C4)C(O)C2O)c(=O)n1 (configuration not stated) | > 100 µM (inactive) | > 100 µM (inactive) | > 100 µM (inactive) | > 100 µM (inactive) | 12.4 µM (inactive) | > 100 µM (inactive) | 
CCOC(=O)/C(C(N)=O)=C(O)/C(O)=C/C(=O)c1ccc(Cl)cc1 |  |  |  |  |  | 18.6 µM (inactive) | 
C=CC(=O)N1C/C(=C\c2ccc([N+](=O)[O-])cc2)C(=O)/C(=C/c2ccc([N+](=O)[O-])cc2)C1 |  |  |  |  |  | 0.419 µM (active) | 
CCOC(=O)C1=C(c2ccccc2)N(C)c2ccccc2S1 |  |  |  |  |  | 18.1 µM (inactive) | 
O=C(O)c1ccccc1C1c2ccc(Cl)cc2Oc2cc(Cl)ccc21 |  | > 100 µM (inactive) | > 100 µM (inactive) | > 100 µM (inactive) | > 100 µM (inactive) |  | GI50 [1]: > 100 µM (inactive); GI50 [3]: > 100 µM (inactive)
COc1cccc(/C=C\c2cc(OC)c(OC)c(OC)c2)c1 | 1.24 µM (inactive) | 12.1 µM (inactive) |  | 0.37 µM (active) | 1.48 µM (inactive) |  | GI50 [1]: 2.49 µM (inactive); GI50 [9]: 2.8 µM (inactive); GI50 [3]: 0.836 µM (active)
N#Cc1ccccc1NC(=O)C(=O)C(C(=O)c1ccccc1-c1ccccc1)C1OC(=O)c2ccccc21 (configuration not stated) | 11.2 µM (inactive) | 14.8 µM (inactive) |  | 20.9 µM (inactive) | 15.5 µM (inactive) |  | GI50 [9]: 16 µM (inactive)
Cc1ccc(/C=C/C(=O)c2sc(-n3nc(-c4ccccc4)cc3-c3ccccc3)nc2C)cc1 | > 100 µM (inactive) | > 100 µM (inactive) | > 100 µM (inactive) | > 100 µM (inactive) | 10.6 µM (inactive) |  | 
OCCOCCN1CCN(c2nc(N3CCCC3)c3nc(Cl)c(NCc4ccccc4)nc3n2)CC1 |  |  |  |  |  | 13.2 µM (inactive) | 
O=c1[nH]cc(/C=N\Nc2ccccc2)c(=O)[nH]1 |  |  |  |  |  | 9.23 µM (inactive) | 
COc1cc(/C=C2/C(=O)N(C(=O)OC(C)C)C(Cc3cc(OC)c(OC)c(C)c3OC)C(=O)N2Cc2ccccc2)c(OC)c(C)c1OC (configuration not stated) |  | 57 µM (inactive) | 49.5 µM (inactive) | 24.8 µM (inactive) | 13.6 µM (inactive) |  | GI50 [1]: 10.4 µM (inactive)
CC(=O)Nc1ccc(-c2nnc(SCC(=O)Nc3cccc(C)c3)o2)cc1 | 13.7 µM (inactive) | 12.2 µM (inactive) | 16.1 µM (inactive) | 10.2 µM (inactive) | 2.34 µM (inactive) |  | GI50 [1]: 10.9 µM (inactive)
Cc1ccc(Nc2n[nH]c(NS(=O)(=O)c3cc(C)c(Cl)cc3S)n2)cc1 |  |  |  |  |  | > 100 µM (inactive) | 
